Data set [1] relates to importin α5 KO mice. In words: Open field (OF) test, importin α5 KO mice. In kind it is in vivo, mouse. The conditions noted are these: FG-7142 5 mg/kg intraperitoneally, OF after 30 min. The procedure:
(§1) All drugs were administered by intraperitoneal injection (I.P.). […] A. CNS Drug Rev.

The subject of data set [2] is importin α5 KO mice. In words: Elevated plus maze (EPM) test, importin α5 KO mice. It counts as in vivo, mouse. Conditions: PF-543 10 mg/kg i.p. On the procedure: as §1
(§2) The EPM contains two open arms and two enclosed ones connected by a central square. Exploration on the open arms is reduced in high anxiety states while it is increased in low anxiety states [Walf, A. A. & Frye, C. A. Nat. Protoc. 2, 322-8 (2007)]. Mice were placed on the central platform facing one of the “open” arms to initiate a 5-minutes test session and the time spent in each arm was measured. The test was performed under 7 lx and 65 dB white noise. The number of entries into, the time spent/distance on the open arms and the percentage of the open arm entries compared with total number of arm entries were recorded using the VideoMot2 software (TSE System, Germany) or the Ethovision XT11 software (Noldus Information Technology, The Netherlands).

Data set [3] has as its system wild type C57BL6 mice. In words: Elevated plus maze (EPM) test, wild type mice. It counts as in vivo, mouse. The procedure: as §1, §2
Data set [4] deals with wild type C57BL6 mice. In words: Open field (OF) test, wild type mice. Conditions: for anxiolytic properties / behavior in the OF test: 1 hour following i.p. injection vs vehicle, Sitosterol 100 mg/kg, Alvespimycin 75 mg/kg, Fluspirilene 10 mg/kg; for number of rearings in the OF center: larger cohort n=10 mice per group, P<0.01.
Where [5] appears, read: S1P receptor agonist 0.1 mg/kg i.p., C57BL6, vs vehicle.
The mark [6] stands for this setting: S1P receptor agonist 0.1 mg/kg i.p., C57Bl6.
The mark [7] stands for this setting: β-sitosterol 100 mg/kg IP, 1 and 6 hours following injection, vs vehicle.
The mark [8] stands for this setting: β-sitosterol 100 mg/kg, 1 hour following injection, vs vehicle.

Entries after “also recorded” stand apart in the source; their conditions may differ. Counter-ions that a name gives are not always drawn.

Regarding `CNC(=O)c1cc2c(cn1)[nH]c1ccccc12` [FG-7142], in the data set with importin α5 KO mice [1], the “distance travelled in the center of the OF” value is reported as “significantly decreases” and the “number of rearing events in the center” value is given as “significantly decreases”. Further, the “anxiolytic phenotype of importin α5 KO mice in the OF test” value in the data set with importin α5 KO mice [1] (5 mg/kg) is on record as “reversed anxiolysis”.
Regarding `Cc1cc(CS(=O)(=O)c2ccccc2)cc(OCc2ccc(CN3CCC[C@@H]3CO)cc2)c1` [PF-543], in the data set with importin α5 KO mice [2] (importin α5 KO animals), the “distance travelled in the open arms” value is “significantly decreased” and the “time spent in the open arms” value is on record as “significantly decreased”. In the data set with importin α5 KO mice [2] (10 mg/kg), the “anxiolytic phenotype of importin α5 KO mice in the EPM” value is listed as “attenuated; also recorded: reverse the anxiolytic response of importin α5 KOs towards WT values”. Moreover, the “anxiety-related behavior of WT mice in the EPM” value with wild type C57BL6 mice [3] (PF-543 10 mg/kg i.p., WT mice) is “did not influence”.
Take `CO[C@H]1/C=C\C=C(/C)C(=O)NC2=CC(=O)C(NCCN(C)C)=C(C[C@@H](C)C[C@H](OC)[C@H](O)[C@@H](C)/C=C(\C)[C@@H]1OC(N)=O)C2=O` [alvespimycin]: the “anxiolytic properties / behavior in the OF test” value (“anxiolytic properties / behavior” for short) with wild type C57BL6 mice [4] is “marked yet variable differences; also recorded: anxiolytic effect”. In addition, the “rearing activity in the center” value in the data set on wild type C57BL6 mice [4] (alvespimycin 75 mg/kg i.p., 1 hour, single dosage regime, FIG. 12A) is “reaching statistical significance”. In addition, in the data set on wild type C57BL6 mice [4] (alvespimycin, independent cohort n=10, FIG. 12B), the “motor performances in the OF test” value is recorded as “without adverse effects”. The “number of rearings in the OF center” value in the data set with wild type C57BL6 mice [4] (alvespimycin, FIG. 12B) is given as 6.2±2.07; in the data set with wild type C57BL6 mice [4] (alvespimycin, FIG. 12B, listed as Alvespimycin) it was “increase”. Further, the “time spent in the center area” value in the data set on wild type C57BL6 mice [4] (alvespimycin, n=10 per group, FIG. 12B, P=0.052) was “increased”. Further, in the data set with wild type C57BL6 mice [4] (alvespimycin, n=10 per group, FIG. 12B, P=0.08), the “latency to access the center area” value is “increased”. For the same compound, the “number of visit in the center area” value in the data set with wild type C57BL6 mice [4] (alvespimycin, n=10 per group, FIG. 12B, P=0.09) is “increased”.
Consider `CNCCC(Oc1ccc(C(F)(F)F)cc1)c1ccccc1` (stereo not drawn) [fluoxetine, Fluoxetine hydrochloride], for which, in the data set on wild type C57BL6 mice [4] (fluoxetine 2, 5, 10 or 20 mg/kg vs vehicle, 10 minutes OF test), the “anxiolytic effect in the OF test, dose-response” value is “dose dependent anxiolytic effect”. In addition, the “anxiolytic effects in the OF test” value was “no apparent effect” with wild type C57BL6 mice [4] (fluoxetine doses of 5 mg/kg and below); “significant anxiolytic effects” with wild type C57BL6 mice [4] (fluoxetine doses of 10 mg/kg and above).
As to `O=C1NCN(c2ccccc2)C12CCN(CCCC(c1ccc(F)cc1)c1ccc(F)cc1)CC2` [fluspirilene], in the data set with wild type C57BL6 mice [4], the “anxiolytic properties / behavior” value is given as “anxiolytic effect”.
With `CCc1cc(/C(C)=N/OCc2ccc(C3CCCCC3)c(C(F)(F)F)c2)ccc1CN1CC(C(=O)O)C1` [siponimod], in the data set on wild type C57BL6 mice [4] (setting [5]), the “distance travelled in the center of the OF” value is reported as “significant increase” and the “time spent in the center of the OF” value was “significant increase”. Besides, the “anxiety levels in the OF assay” value with wild type C57BL6 mice [4] (setting [6]) was “markedly reduced”. Besides, in the data set on wild type C57BL6 mice [4] (siponimod 0.1 mg/kg i.p. every 3 days during 4 weeks, vs saline), the “center/border ratio (for the exploration time) in the OF” value was “higher”. Besides, the “time spent in the open arms of the EPM” value in the data set with wild type C57BL6 mice [3] (setting [5]) is on record as “significant increase”. For the same compound, the “anxiety levels in the EPM assay” value with wild type C57BL6 mice [3] (setting [6]) is on record as “markedly reduced”. In addition, in the data set on wild type C57BL6 mice [3] (siponimod 0.1 mg/kg i.p. every 3 days during 4 weeks, vs vehicle), the “distance in the open arms of the EPM” value is listed as “significant increase”.
Turning to `CC[C@H](CC[C@@H](C)[C@H]1CC[C@H]2[C@@H]3CC=C4C[C@@H](O)CC[C@]4(C)[C@H]3CC[C@]12C)C(C)C` [β-sitosterol], the “anxiolytic properties / behavior” value with wild type C57BL6 mice [4] is on record as “anxiolytic effect”. Further, in the data set with wild type C57BL6 mice [4] (setting [7]), the “distance travelled in the OF center” value was “increasing” and the “number of visits in the OF center” value is on record as “increasing”. In addition, in the data set with wild type C57BL6 mice [4] (β-sitosterol by injection), the “time course of anxiolytic effects in the OF test” value was “apparent 1 hour post-injection and persisted until 6 hours following injection”. The “anxiolytic effect in the OF test, dose response” value in the data set on wild type C57BL6 mice [4] (β-sitosterol intraperitoneally at the indicated doses, 1 hour following injection) is given as “clear dose-dependent anxiolytic effects; also recorded: reaching significance for the highest dose tested”. Further, in the data set with wild type C57BL6 mice [3] (setting [8]), the “distance in the open arms of the EPM” value is recorded as “significant increase” and the “time spent in the open arms of the EPM” value is reported as “significant increase”.
